Assay results taken from patent publication US9161990B2, “Hydrochloride salts of a glycopeptide-cephalosporin antbiotic compond” (THERAVANCE BIOPHARMA ANTIBIOTICS IP, LLC, priority 2013, dated 2015).
Structures can show the parent of a compound that is named as a salt.

Assays:
[1] = Storage stability of lyophilized hydrochloride salts (purity by HPLC); format: physicochemical; conditions: for Purity (HPLC area percent) / Δ (change in percent purity from time = 0) / decrease in purity: dihydrochloride; for decrease in purity: listed as dihydrochloride salt
Procedure: (§1) All solvents were HPLC grade and were purchased from Honeywell Burdick & Jackson (Muskegon, Mich. 49442). Phosphoric acid (85% w/w) and sodium dihydrogen phosphate were HPLC grade and were purchased from Fluka (Sigma-Aldrich, St. Louis, Mo. 63103). All reagents were used without further purification.
(§2) Test samples were filtered through a 0.2 μm polyvinylidene fluoride (PVDF) filter before analysis and the first 1 mL was discarded.
(§3) Test sample purity was determined based on the integrated peak area (area-under-the-curve or AUC) for the compound as a percentage of all integrated peaks. The concentration (assay value) of the compound in a test sample was determined by comparison with a reference standard.
(§4) One rack was stored protected from light in a drawer at room temperature and the other rack was stored in a refrigerator at 2 to 8° C. A representative vial of each type of stability sample was analyzed by HPLC after storage for 1, 3, 6 and 12 months to determine purity.

[2] = Storage stability of hydrochloride salts in a lyophilized composition containing sucrose and glycine (purity by HPLC); format: physicochemical; conditions: for Δ (change in percent purity from time = 0) / Purity (HPLC area percent): composition containing sucrose and glycine; for Δ (change in percent purity from time = 0) / Purity (HPLC area percent) / decrease in purity: dihydrochloride; for decrease in purity: formulated with sucrose and glycine, listed as dihydrochloride salt
Procedure: as §1, §2, §3, §4

[3] = refrigerated temperature (2 to 8° C.), 1 month
[4] = refrigerated temperature (2 to 8° C.), 3 months
[5] = refrigerated temperature (2 to 8° C.), 6 months
[6] = refrigerated temperature (2 to 8° C.), 12 months
[7] = room temperature, 1 month, listed as Di HCl
[8] = room temperature, 3 months, listed as Di HCl
[9] = room temperature, 6 months, listed as Di HCl
[10] = room temperature, 12 months, listed as Di HCl
[11] = stored at 2 to 8° C. for 12 months
[12] = stored at room temperature for 12 months

## CN[C@H](CC(C)C)C(=O)NC1C(=O)N[C@@H](CC(N)=O)C(=O)N[C@H]2C(=O)N[C@H]3C(=O)N[C@H](C(=O)N[C@H](C(=O)NCCCO/N=C(\C(=O)N[C@@H]4C(=O)N5C(C(=O)[O-])=C(C[n+]6ccccc6)CS[C@H]45)c4nc(N)sc4Cl)c4cc(O)cc(O)c4-c4cc3ccc4O)[C@H](O)c3ccc(c(Cl)c3)Oc3cc2cc(c3O[C@@H]2O[C@H](CO)[C@@H](O)[C@H](O)[C@H]2O[C@H]2C[C@](C)(N)[C@H](O)[C@H](C)O2)Oc2ccc(cc2Cl)[C@H]1O (stereo partly drawn) [Dihydrochloride, 26-[[[3-[[(Z)-[1-(2-amino-5-chloro-4-thiazolyl)-2-[[(6R,7R)-2-carboxy-8-oxo-3-(pyridiniomethyl)-5-thia-1-azabicyclo[4.2.0]oct-2-en-7-yl]amino]-2-oxoethylidene]amino]oxy]propyl]amino]carbonyl]-26-decarboxyvancomycin dihydrochloride]
[1]; [3]
  Purity (HPLC area percent): 89.9%
  Δ (change in percent purity from time = 0): −0.2%
[1]; [4]
  Purity (HPLC area percent): 89.4%
  Δ (change in percent purity from time = 0): −0.7%
[1]; [5]
  Δ (change in percent purity from time = 0): 0.7%
[1]; [6]
  Purity (HPLC area percent): 87.2%
  Δ (change in percent purity from time = 0): −2.9%
[1]; refrigerated temperature (2 to 8° C.), time 0 months
  Purity (HPLC area percent): 90.1%
[1]; room temperature, 1 month
  Purity (HPLC area percent): 85.3%
  Δ (change in percent purity from time = 0): −4.8%
[1]; [7]
  Purity (HPLC area percent): 85.3%
  Δ (change in percent purity from time = 0): −4.8%
[1]; room temperature, 3 months
  Purity (HPLC area percent): 82.5%
  Δ (change in percent purity from time = 0): −7.6%
[1]; [8]
  Purity (HPLC area percent): 82.5%
  Δ (change in percent purity from time = 0): −7.6%
[1]; room temperature, 6 months
  Purity (HPLC area percent): 81.4%
  Δ (change in percent purity from time = 0): −8.7%
[1]; [9]
  Purity (HPLC area percent): 81.4%
  Δ (change in percent purity from time = 0): −8.7%
[1]; room temperature, 12 months
  Purity (HPLC area percent): 69.6%
  Δ (change in percent purity from time = 0): −20.5%
[1]; [10]
  Purity (HPLC area percent): 69.6%
  Δ (change in percent purity from time = 0): −20.5%
[1]; room temperature, time 0 months
  Purity (HPLC area percent): 90.1%
[1]; room temperature, time 0 months, listed as Di HCl
  Purity (HPLC area percent): 90.1%
[1]; [11]
  decrease in purity: 2.9%
[1]; [12]
  decrease in purity: 20.5%
[1]; stored for 12 months at either room temperature or 2 to 8° C.
  storage stability compared to the trihydrochloride salt: significantly more stable than the trihydrochloride salt
[2]; [3]
  Δ (change in percent purity from time = 0): −0.3%
[2]; [4]
  Purity (HPLC area percent): 89.4%
  Δ (change in percent purity from time = 0): −0.7%
[2]; [5]
  Δ (change in percent purity from time = 0): 0.7%
[2]; [6]
  Purity (HPLC area percent): 87.2%
  Δ (change in percent purity from time = 0): −2.9%
[2]; room temperature, 1 month
  Δ (change in percent purity from time = 0): −0.8%
[2]; room temperature, 3 months
  Δ (change in percent purity from time = 0): −2.9%
[2]; room temperature, 6 months
  Δ (change in percent purity from time = 0): 0.2%
[2]; room temperature, 12 months
  Δ (change in percent purity from time = 0): −6.8%
[2]; [11]
  decrease in purity: 2.9%
[2]; [12]
  decrease in purity: 6.8%
[2]; stored at room temperature for 12 months, compared to the salt alone
  storage stability when formulated with sucrose and glycine: more stable
